Source: ChEMBL document CHEMBL1201862, “PubChem BioAssay data set” (2004)
Activity calls are given as the source filed them.

Columns and labels:
[1] = molecular target: T1, Low molecular weight phosphotyrosine protein phosphatase (Homo sapiens, UniProt P24666); format: functional; details: read-out: IC50_Mean
T1 sequence (P24666 whole entry): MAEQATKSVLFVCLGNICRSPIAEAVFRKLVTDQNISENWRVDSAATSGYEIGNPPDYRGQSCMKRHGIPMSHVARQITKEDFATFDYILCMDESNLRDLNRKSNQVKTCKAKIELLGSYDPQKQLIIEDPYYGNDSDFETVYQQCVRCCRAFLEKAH

[2] = molecular target: T1, Low molecular weight phosphotyrosine protein phosphatase; format: functional; details: read-out: IC50_Mean; remark: listed apart in the source
[3] = molecular target: Ras and Rab interactor 1/Tyrosine-protein kinase ABL1 (Homo sapiens, UniProt P00519+Q13671); format: functional;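 note: biochemical TR-FRET dose-response test measuring inhibition of binding between Rin1 and Abl proteins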
Chain of Ras and Rab interactor 1/Tyrosine-protein kinase ABL1 (P00519 whole entry): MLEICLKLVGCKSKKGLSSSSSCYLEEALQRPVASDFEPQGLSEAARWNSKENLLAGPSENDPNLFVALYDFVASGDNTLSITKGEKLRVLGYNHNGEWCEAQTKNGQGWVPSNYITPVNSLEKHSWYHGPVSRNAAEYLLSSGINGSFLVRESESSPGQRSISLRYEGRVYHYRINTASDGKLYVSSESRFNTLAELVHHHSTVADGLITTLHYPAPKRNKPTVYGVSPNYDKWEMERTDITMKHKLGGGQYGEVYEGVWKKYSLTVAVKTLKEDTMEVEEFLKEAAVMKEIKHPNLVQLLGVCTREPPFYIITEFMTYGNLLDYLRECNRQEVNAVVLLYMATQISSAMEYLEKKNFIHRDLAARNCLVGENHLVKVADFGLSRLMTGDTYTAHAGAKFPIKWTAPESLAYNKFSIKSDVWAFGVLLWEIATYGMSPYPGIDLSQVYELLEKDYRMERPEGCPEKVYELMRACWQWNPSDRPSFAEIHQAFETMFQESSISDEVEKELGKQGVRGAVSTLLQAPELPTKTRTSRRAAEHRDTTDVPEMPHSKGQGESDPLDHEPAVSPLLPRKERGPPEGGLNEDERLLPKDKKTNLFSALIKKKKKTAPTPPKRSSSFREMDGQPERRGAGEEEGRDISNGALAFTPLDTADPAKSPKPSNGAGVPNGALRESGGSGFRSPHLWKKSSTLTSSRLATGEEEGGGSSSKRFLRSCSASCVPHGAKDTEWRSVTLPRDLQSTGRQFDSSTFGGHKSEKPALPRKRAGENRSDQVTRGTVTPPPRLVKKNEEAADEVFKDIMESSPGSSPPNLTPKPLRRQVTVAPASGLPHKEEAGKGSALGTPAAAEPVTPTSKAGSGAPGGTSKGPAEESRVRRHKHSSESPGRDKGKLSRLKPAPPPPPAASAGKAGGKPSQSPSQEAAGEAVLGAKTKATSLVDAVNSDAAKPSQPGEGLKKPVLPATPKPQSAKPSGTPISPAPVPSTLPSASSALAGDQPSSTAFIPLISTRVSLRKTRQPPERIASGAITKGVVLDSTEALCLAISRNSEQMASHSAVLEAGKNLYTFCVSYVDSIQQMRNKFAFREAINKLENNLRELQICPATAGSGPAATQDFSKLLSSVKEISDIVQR
Chain of Ras and Rab interactor 1/Tyrosine-protein kinase ABL1 (Q13671 whole entry): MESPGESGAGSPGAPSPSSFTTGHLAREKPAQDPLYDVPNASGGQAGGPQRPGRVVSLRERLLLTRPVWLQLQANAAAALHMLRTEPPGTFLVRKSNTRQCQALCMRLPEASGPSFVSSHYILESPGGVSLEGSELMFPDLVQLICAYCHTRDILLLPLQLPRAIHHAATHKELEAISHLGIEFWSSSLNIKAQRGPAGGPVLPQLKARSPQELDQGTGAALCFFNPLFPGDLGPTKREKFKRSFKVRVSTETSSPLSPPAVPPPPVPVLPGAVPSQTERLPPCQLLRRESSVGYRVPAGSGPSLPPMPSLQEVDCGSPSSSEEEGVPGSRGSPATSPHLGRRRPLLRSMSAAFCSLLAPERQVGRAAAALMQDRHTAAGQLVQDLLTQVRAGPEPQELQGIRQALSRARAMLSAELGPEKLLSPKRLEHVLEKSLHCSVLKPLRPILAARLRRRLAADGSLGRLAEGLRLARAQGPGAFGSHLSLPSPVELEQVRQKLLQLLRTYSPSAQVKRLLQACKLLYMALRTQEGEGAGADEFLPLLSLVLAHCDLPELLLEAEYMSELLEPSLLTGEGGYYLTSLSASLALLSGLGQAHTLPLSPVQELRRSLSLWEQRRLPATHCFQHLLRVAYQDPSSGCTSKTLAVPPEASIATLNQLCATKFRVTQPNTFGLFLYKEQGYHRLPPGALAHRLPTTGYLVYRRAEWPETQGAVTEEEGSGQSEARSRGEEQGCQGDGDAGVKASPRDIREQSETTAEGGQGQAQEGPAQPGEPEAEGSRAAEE

INS1 = test: INS-1E survival protection against cytokine death – cell-based, luminescence, retest, dose response (AID 449756); format: functional; details: Rattus norvegicus;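 note: cell death triggered by IL-1 beta plus TNF-alpha plus IFN-gamma mixture; protective hits raise ATP signal compared with cytokine alone wells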
[4] = MIN6 cell viability loss – mouse insulinoma, cytotoxicity control, dose response (AID 2122); format: functional;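 note: confirmatory high-throughput counterscreen run to flag cytotoxic compounds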
Beta Lactamase = Beta Lactamase (Pseudomonas aeruginosa, UniProt Q932Y6); test: BLA reporter interference, concentration series – BLA reporter cells, FRET fluorescence, artefact control for NOD2-RIPK2 interaction inhibitor project, dose response (AID 651552); format: functional, cell-based
Chain of Beta Lactamase (Q932Y6 whole entry): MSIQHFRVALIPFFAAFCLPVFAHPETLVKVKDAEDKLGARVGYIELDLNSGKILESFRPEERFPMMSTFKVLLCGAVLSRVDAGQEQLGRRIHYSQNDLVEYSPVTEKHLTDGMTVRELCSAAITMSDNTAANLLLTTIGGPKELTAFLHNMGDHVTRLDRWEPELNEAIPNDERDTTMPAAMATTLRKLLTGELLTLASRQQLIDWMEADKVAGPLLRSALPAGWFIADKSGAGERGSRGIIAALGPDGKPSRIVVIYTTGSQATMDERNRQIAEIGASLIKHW

[5] = decrease of insulin promoter-GFP reporter – imaging, high-content screening, mouse beta cells (AID 1628); format: functional; details: MIN6
[6] = Fluorescence-based cell-based high throughput dose response assay for inhibitors of the interaction of nucleotide-binding oligomerization domain containing 2 (NOD2) and the receptor-interacting serine-threonine kinase 2 (RIPK2).; format: functional, Homo sapiens; details: Homo sapiens
[7] = molecular target: T2, RNA-binding protein pos-1 (Caenorhabditis elegans, UniProt G5EF15); test: disruptors of C. elegans POS-1 RNA interaction – biochemical, fluorescence polarization, dose response (AID 1964);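 note: purified POS-1 fused to maltose binding protein made in E. coli; potency of compounds blocking POS-1 binding to fluorescent RNA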
T2 sequence (G5EF15 whole entry): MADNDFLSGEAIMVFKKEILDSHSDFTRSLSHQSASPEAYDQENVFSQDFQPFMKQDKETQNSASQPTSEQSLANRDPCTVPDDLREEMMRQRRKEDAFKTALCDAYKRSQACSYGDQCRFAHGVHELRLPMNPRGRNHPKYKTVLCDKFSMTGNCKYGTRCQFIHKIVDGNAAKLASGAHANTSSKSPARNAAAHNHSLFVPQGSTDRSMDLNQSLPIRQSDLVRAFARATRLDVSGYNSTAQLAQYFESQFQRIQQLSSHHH

[8] = molecular target: T3, Sentrin-specific protease 1 (Homo sapiens, UniProt Q9P0U3); test: SENP1 catalytic domain blockers, concentration series – biochemical, kinetic FRET, dose response (AID 651697); format: functional; details: read-out: IC50_Mean
T3 sequence (Q9P0U3 whole entry): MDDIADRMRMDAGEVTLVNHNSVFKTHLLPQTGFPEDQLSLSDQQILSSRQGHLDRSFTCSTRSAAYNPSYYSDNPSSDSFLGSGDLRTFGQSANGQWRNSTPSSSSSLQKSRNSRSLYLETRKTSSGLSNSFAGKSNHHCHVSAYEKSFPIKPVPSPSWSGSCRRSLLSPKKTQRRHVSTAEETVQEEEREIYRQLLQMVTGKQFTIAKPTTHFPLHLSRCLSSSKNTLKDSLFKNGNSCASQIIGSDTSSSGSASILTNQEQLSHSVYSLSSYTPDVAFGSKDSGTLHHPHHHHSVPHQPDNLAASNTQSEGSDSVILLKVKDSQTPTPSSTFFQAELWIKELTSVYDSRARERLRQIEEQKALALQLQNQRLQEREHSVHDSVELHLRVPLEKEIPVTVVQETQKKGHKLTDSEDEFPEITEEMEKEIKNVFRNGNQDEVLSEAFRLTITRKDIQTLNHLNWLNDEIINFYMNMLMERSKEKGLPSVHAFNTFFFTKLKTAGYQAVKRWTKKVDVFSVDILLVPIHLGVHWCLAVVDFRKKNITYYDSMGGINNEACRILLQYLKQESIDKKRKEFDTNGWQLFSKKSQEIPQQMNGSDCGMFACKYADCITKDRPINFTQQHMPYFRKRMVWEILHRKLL

[9] = Luminescence Cell-Based Dose Confirmation HTS to Identify Activators of 5'UTR Stem-Loop Driven Alpha-Synuclein mRNA Translation in H4 Neuroglioblastoma Cells. [Related pubchem assays: 1829 (Project Summary), 1814 (Primary HTS)]; format: functional
[10] = molecular target: T4, Zinc finger protein mex-5 (Caenorhabditis elegans, UniProt Q9XUB2); test: potency of MEX-5 RNA-binding blockers – biochemical, C. elegans, fluorescence polarization, dose response (AID 1960)
T4 sequence (Q9XUB2 whole entry): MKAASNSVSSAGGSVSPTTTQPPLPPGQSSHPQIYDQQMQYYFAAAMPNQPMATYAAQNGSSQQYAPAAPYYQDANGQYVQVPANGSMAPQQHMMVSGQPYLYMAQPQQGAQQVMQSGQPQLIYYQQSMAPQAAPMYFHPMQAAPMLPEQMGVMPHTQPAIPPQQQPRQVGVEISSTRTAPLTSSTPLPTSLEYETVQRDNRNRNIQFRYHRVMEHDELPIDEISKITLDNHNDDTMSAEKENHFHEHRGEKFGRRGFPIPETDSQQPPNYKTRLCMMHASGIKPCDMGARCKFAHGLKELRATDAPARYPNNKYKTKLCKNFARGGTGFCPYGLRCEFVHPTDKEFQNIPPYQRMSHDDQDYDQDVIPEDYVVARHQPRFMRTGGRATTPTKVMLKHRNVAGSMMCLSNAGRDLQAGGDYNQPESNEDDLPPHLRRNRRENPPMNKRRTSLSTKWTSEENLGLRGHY

H4 = test: Luminescence Cell-Based Dose Response HTS to Identify Activators of 5'UTR Stem-Loop Driven Prion Protein mRNA Translation in H4 Neuroglioblastoma Cells. [Related pubchem assays: 1829 (Project Summary), 1814 (Primary HTS)]; format: functional; details: Homo sapiens
[11] = Luminescence Cell-Based Dose Response HTS to Identify Activators of Luciferase Translation or Activity in H4 […] Cells. [Related pubchem assays: 1829 (Project Summary), 1814 (Primary HTS)]; format: functional
[12] = molecular target: Photoreceptor-specific nuclear receptor (Homo sapiens, UniProt Q9Y5X4); format: functional, cell-based;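 note: CHO-S cells with Gal4-NCOR and VP16-NR2E3 two-hybrid luciferase reporter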
Chain of Photoreceptor-specific nuclear receptor (Q9Y5X4 whole entry, the tested form may be a part): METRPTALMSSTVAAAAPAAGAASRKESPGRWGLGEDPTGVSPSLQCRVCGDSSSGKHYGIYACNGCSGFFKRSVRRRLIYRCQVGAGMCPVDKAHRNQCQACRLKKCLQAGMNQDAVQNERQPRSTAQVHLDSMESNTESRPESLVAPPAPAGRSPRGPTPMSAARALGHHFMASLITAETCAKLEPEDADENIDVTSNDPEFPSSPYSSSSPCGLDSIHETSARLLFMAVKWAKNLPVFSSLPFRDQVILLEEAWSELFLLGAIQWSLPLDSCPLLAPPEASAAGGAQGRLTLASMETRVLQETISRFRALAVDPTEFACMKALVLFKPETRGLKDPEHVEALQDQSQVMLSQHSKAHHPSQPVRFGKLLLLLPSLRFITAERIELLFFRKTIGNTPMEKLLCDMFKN

[13] = molecular target: T5, Calpain-2 catalytic subunit (Sus scrofa, UniProt P43367); test: m-calpain protease blockers, concentration series – biochemical, fluorogenic peptide substrate, dose response (AID 1420); format: functional
T5 sequence (P43367 whole entry): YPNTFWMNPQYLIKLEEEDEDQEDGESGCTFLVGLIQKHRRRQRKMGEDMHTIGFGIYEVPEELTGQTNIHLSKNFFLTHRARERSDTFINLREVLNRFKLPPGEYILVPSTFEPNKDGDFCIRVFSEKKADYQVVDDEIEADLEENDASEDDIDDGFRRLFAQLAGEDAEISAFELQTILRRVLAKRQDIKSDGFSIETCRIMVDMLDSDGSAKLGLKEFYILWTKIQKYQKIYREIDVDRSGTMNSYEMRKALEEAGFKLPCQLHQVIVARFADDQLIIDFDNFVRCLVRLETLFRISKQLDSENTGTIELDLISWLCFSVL

[14] = molecular target: T6, Short transient receptor potential channel 4 (Mus musculus, UniProt Q9QUQ5); test: block of DAMGO-driven TRPC4 calcium entry – cell-based, HEK293 TRPC4/mu-opioid, Fluo-4 calcium, dose response (AID 434942); format: functional;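 note: potency of inhibitors blocking the TRPC4 calcium response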
T6 sequence (Q9QUQ5 whole entry): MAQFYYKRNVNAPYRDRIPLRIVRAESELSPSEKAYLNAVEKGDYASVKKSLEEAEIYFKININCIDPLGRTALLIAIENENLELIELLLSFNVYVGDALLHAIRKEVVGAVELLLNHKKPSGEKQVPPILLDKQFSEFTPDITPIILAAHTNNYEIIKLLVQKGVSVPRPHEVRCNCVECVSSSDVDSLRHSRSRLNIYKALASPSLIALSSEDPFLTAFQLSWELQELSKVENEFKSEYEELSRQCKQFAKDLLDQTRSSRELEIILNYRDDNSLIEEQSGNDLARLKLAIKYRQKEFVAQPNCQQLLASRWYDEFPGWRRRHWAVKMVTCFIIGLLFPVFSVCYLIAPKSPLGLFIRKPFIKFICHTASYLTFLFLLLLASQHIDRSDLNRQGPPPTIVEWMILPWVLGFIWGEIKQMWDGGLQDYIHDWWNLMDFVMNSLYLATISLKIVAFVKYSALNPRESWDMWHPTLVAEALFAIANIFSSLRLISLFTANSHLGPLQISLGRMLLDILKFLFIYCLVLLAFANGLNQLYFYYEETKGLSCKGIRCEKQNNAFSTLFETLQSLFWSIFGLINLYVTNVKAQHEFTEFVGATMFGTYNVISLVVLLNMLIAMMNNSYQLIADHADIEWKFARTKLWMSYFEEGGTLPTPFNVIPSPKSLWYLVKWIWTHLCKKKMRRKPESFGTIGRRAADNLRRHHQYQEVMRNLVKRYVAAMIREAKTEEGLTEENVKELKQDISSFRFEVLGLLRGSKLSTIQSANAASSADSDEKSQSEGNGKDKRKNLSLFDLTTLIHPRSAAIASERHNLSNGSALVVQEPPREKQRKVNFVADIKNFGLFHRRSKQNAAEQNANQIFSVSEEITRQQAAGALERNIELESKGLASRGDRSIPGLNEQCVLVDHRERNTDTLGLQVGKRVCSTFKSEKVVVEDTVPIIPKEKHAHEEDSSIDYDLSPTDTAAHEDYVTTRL

[15] = molecular target: T7, High affinity choline transporter 1 (Homo sapiens, UniProt Q9GZV3); test: human choline transporter blockers, potency – cell-based, 10-point CRC, membrane potential dye, dose response (AID 588401); format: functional;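 note: membrane potential dye fluorescence of choline-evoked depolarization via CHT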
T7 sequence (Q9GZV3 whole entry): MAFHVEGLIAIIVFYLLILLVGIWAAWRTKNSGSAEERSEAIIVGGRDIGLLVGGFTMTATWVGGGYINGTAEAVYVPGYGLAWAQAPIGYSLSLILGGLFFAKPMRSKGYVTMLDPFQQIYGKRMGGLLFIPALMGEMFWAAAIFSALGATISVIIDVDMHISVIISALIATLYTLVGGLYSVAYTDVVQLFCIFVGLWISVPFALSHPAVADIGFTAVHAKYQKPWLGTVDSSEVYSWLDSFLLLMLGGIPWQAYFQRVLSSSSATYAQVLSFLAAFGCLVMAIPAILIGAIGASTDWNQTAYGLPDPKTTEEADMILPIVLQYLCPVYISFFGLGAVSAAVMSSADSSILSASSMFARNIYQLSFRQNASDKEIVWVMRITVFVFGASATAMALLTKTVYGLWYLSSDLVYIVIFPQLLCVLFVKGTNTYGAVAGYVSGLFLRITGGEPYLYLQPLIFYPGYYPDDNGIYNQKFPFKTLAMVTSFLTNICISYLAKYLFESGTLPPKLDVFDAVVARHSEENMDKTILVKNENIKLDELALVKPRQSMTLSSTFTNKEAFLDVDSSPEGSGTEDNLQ

[16] = molecular target: T7, High affinity choline transporter 1; test: human choline transporter blockers, potency – cell-based, 5-point CRC, membrane potential dye, dose response (AID 504840); format: functional
[17] = molecular target: Hepatocyte nuclear factor 4-alpha (Homo sapiens, UniProt P41235); format: functional, cell-based;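 note: biochemical luminescence-based dose-response counterscreen measuring inhibition of HNF4 dimerization, run alongside a screen for blockers of ABHD5–perilipin-5 interaction; split luciferase complementation of HNF4 fusion proteins in cell lysate measuring dimerization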
Fatty acid synthase [18] = molecular target: T8, Fatty acid synthase (Homo sapiens, UniProt P49327); test: inhibition of human FAS-TE enzyme activity – biochemical, kinetic fluorescence intensity, dose response (AID 624326); format: functional;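 note: rate of fluorescence rise from hydrolysis of a fluorogenic O-methyl fluorescein ester substrate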
T8 sequence (P49327 whole entry): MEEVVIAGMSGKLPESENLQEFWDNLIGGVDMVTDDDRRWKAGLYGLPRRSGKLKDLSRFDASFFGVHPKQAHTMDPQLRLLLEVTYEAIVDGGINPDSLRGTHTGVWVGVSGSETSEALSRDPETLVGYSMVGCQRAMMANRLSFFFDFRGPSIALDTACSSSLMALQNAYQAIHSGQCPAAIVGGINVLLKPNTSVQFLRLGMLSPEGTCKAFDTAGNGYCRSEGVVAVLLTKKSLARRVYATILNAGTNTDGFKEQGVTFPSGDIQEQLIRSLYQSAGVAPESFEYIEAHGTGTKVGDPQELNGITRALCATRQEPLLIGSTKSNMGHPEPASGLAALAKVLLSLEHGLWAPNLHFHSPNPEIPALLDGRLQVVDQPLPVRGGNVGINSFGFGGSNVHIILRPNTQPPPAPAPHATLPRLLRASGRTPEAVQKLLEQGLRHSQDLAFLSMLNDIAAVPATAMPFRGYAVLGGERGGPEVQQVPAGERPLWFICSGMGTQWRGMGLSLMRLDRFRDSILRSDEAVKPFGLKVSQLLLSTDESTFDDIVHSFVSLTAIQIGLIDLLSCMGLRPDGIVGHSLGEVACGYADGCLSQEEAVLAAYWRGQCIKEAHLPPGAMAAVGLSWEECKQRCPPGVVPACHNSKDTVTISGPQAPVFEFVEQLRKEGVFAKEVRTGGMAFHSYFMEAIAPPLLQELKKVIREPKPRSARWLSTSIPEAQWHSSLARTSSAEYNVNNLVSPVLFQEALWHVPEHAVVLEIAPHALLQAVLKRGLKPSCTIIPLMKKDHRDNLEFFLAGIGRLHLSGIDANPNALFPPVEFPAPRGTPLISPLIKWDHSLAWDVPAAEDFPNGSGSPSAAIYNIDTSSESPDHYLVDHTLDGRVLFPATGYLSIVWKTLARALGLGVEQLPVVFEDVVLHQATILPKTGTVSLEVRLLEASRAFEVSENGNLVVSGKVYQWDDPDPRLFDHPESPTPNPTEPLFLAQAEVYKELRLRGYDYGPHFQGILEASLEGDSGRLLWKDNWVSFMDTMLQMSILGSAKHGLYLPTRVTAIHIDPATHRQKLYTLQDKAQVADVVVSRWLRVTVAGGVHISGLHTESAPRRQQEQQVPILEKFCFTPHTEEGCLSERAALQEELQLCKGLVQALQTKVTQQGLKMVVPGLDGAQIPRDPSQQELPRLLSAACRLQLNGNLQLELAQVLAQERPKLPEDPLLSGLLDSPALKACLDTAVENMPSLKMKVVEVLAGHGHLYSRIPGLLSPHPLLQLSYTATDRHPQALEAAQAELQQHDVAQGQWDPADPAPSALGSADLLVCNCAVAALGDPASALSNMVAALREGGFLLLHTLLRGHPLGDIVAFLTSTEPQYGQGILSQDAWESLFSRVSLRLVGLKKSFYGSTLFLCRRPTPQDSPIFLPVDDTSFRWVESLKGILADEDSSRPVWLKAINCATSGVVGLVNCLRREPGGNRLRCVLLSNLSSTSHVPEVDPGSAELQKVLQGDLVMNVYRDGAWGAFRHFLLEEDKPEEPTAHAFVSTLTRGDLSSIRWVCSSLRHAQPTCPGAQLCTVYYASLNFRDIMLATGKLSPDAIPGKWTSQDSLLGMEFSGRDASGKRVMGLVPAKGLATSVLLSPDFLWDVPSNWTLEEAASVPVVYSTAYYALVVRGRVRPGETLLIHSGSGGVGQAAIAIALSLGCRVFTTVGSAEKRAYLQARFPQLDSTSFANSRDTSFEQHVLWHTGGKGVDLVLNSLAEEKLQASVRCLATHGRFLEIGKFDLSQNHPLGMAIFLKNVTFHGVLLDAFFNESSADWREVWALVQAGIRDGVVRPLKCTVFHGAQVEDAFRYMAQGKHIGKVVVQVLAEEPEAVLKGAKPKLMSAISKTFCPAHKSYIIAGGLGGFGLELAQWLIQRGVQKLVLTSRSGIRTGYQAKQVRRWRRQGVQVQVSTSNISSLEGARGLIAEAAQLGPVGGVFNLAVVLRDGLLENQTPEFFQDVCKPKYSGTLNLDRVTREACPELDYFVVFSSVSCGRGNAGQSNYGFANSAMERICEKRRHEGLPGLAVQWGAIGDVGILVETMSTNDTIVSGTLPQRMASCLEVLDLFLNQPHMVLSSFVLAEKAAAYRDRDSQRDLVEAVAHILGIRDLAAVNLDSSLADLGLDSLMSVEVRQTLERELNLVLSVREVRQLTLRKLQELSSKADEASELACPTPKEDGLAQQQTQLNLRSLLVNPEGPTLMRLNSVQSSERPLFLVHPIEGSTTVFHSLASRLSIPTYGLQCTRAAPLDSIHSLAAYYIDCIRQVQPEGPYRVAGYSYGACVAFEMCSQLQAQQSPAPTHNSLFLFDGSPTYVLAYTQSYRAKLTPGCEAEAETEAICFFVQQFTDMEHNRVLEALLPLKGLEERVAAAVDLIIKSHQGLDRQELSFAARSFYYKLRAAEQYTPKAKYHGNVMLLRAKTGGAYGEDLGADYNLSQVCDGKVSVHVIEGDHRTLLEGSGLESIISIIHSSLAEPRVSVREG

Fatty acid synthase [19] = molecular target: T8, Fatty acid synthase; test: inhibition of human FAS-TE enzyme activity – biochemical, endpoint fluorescence intensity, uHTS hits, dose response (AID 624327); format: functional;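 note: fluorescence from hydrolysis of an O-methyl fluorescein acyl ester substrate by the enzyme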

With `CN(C)c1nc(N)nc(/C(C#N)=C/C2CC3C=CC2C3)n1` (configuration not stated) the IC50 [1] was 25.2 µM (inactive) and the IC50 [2] was 10.6 µM (active).

With `COc1ccc(CCNC(=O)CSc2nc(C)nc3c2c(=O)n(C)c(=O)n3C)cc1OC` the IC50 [3] was 13.9 µM (inactive).

With `Cc1cc(N2CCN(C)CC2)ccc1NC(=O)c1c2c(nc3ccccc13)CCN(Cc1ccccc1)C2` the AC50 (INS1) was 4.71 µM (active), the IC50 [4] was 1.05 µM (active) and the IC50 (Beta Lactamase) was 12.3 µM (inactive). The IC50 [5] was 1.37 µM (active) and the IC50 [6] was 11 µM (inactive).

For `COc1ccc(P2(=O)Nc3ccccc3N2)cc1`, the EC50 [7] was > 300 µM (not active), the IC50 [8] was 74.3 µM (inactive) and the EC50 [9] was > 120 µM (not active). For the same molecule, the EC50 [10] was 103 µM (active), the EC50 (H4) was 7.44 µM (active) and the EC50 [11] was 10.5 µM (active).

In the case of `O=c1c(Cl)c(N2CCN(c3ccc(F)cc3)CC2)cnn1C12CC3CC(CC(C3)C1)C2`, the IC50 [12] is reported as 1.93 µM (active) and the IC50 [13] is reported as > 50 µM (not active).

For `COc1cccc(Nc2c(Nc3cccc(OC)c3)c(=O)c2=O)c1`, the IC50 [1] was 10.4 µM (active) and the IC50 [2] was 18.4 µM (active).

With `CC1CCCCN1CCCNC(=O)c1nn(C)c2c1CSc1ccccc1-2` (configuration not stated) the EC50 [14] was 4.22 µM (active), the IC50 [15] was 10.6 µM (active) and the IC50 [16] was 5.6 µM (active).

With `CCCCCc1c(-c2ccc(OC)c(OC)c2)ncn1CCc1ccccc1OC` the IC50 [12] was 7.43 µM (active).

For `CC(C)(C)NC(=O)C(C1CC1)n1c(=O)c(-c2ccco2)nc2ccccc21` (configuration not stated), the IC50 [17] was 1.72 µM (active).

For `CCOC(=O)[C@]12Cc3cc(Cl)ccc3[C@H]1N(C1CCCCC1)C(=O)c1ccccc12`, the IC50 (Fatty acid synthase [18]) was 4.57 µM (active), the IC50 (Beta Lactamase) was 19.9 µM (inactive) and the IC50 (Fatty acid synthase [19]) was 6.4 µM (active). For the same molecule, the IC50 [6] was 1.45 µM (active).
